Paper PMC9890698 (BMC Biology, 2023)
“And” between values parts separate entries of the source, which are not always exact repeats. Equal values may be shown once.

What was measured:
[1] = target: T1, Human P2Y12-R (Homo sapiens, UniProt Q9H244); test: IP1 accumulation assay (HTRF) in HEK293T cells expressing P2Y12-R; assay type: cell-based; settings: MRS2179 10 μM, 2 h
T1 construct: expressed in transfected cells; host or cells: HEK293T/17

[2] = system: P2Y1-R; set-up: method as in PMID 29724785; settings: Alzheimer's disease mouse model, result in words; cited from earlier work
[3] = system: HEK293T cells (pcDNA3.1); test: IP1 accumulation assay (HTRF) in control HEK293T cells (pcDNA3.1); assay type: cell-based, Human; settings: pcDNA3.1, MRS2179 10 μM, 2 h
Description: Since Gαq protein activation is known to induce PLC activation leading to IP3 and subsequent cytosolic calcium release, we analyzed the constitutive Gαq-dependent P2Y1-R signaling by quantifying intracellular inositol monophosphate (IP1) using a monoclonal antibody-based competitive ELISA. IP1 is a downstream metabolite of IP3 that accumulates in cells following Gαq protein-coupled receptor activation, making it an ideal readout for Gαq protein-dependent signaling pathways.
Quantification of intracellular IP1 was performed using the HTRF (Homogeneous Time Resolved Fluorescence) IP1 competitive immunoassay (IP-One Tb kit. Cisbio. France) according to the manufacturer’s instructions. Briefly, 20,000 HEK293T/17 cells or 3.10^6 platelets were distributed in a 384-well white microplate (Greiner) and incubated with the indicated molecules for 30 min or 2 h at 37 °C in the presence of 50 mM of LiCl to prevent IP1 degradation. After addition of d2-labeled IP1 (acceptor) and anti-IP1-Cryptate (donor) for 1 h, the specific FRET signals were calculated by the fluorescence ratio of the acceptor and donor emission signal (665/620 nm) collected using a modified Infinite F500 (Tecan Group Ltd). Conversion of the HTRF ratio of each sample into IP1 concentrations was performed on the basis of a standard curve to determine the linear dynamic range of the assay.

[4] = system: Gαq protein in HEK293T cells (pcDNA3.1); test: Gαq protein activation BRET2 assay in control HEK293T cells without receptor (pcDNA3.1 / 0 μg); assay type: cell-based, Human; settings: pcDNA3.1, ADP 10 μM, 1 min, individual experiments
Description: As previously described, using a BRET^2 (bioluminescence resonance energy transfer)-based assay, we directly monitored the basal Gαq protein activation by measuring the interaction between Gαq and Gγ2 subunits of the Gαqβ1γ2 heterotrimer complex. Indeed, this assay is based on the non-radiative transfer between the Renilla reniformis luciferase (RLuc8) energy donor fused to the Gαq protein subunit and the fluorescent GFP2 energy acceptor fused to Gγ2 protein subunit (Fig. 1a). […] By contrast, ligand-independent constitutive receptor activation or agonist-induced receptor activation will promote Gαq/Gγ2 subunit dissociation, thereby leading to a decrease of the basal BRET signal (Fig. 1a). […] To preclude any P2Y1-R activation by a passive release of ADP by HEK293T cells, we performed similar experiments in the presence of high concentration of apyrase (0.2U/mL) to degrade any trace of ADP in the medium (Additional File 2: Fig. S2a). Under these conditions, P2Y1-R expression still induces a marked and significant decrease of the basal BRET signal compared to control cells (pcDNA3.1), thereby supporting a P2Y1-R-dependent constitutive activation of Gαq protein. […] Of note, because P2Y1-R and AT1-R were respectively Myc- and HA-tagged and were thus detected using different primary antibodies, their expression at the cell surface cannot be compared between each other’s.
G protein activation and β-arrestin 2 recruitment were performed as previously described. […] BRET signal between RLuc8 and GFP2 was measured after addition of the luciferase substrate coelenterazine 400a (5 μM). […] BRET signal was recorded after incubation with coelenterazine h (5 μM) for 8 min. For kinetics studies, BRET signal between RLuc and Venus was recorded at 20-s intervals at basal state for the 2 first minutes and then for 5 min after ligand injection. For saturation curves (BRET^1), the expression level of Venus- or RLuc-tagged protein was determined by direct measurement of total fluorescence and luminescence respectively. Total fluorescence was first measured with an excitation filter at 485 nm and an emission filter at 520 nm. Then, the same sample was incubated for 8 minutes with 5 μM coelenterazine h and the total luminescence was measured. BRET^2 and BRET^1 readings were collected using a modified Infinite F500 (Tecan Group Ltd). The BRET^2 signal was calculated by the ratio of emission of GFP2 (510–540 nm) to RLuc8 (370–450 nm) and the BRET^1 signal by the ratio of emission of Venus (520–570 nm) to RLuc (370–480 nm). Sometimes, results are expressed as the Net BRET computed by deducting the BRET background signal (obtained in the presence of the energy donor alone) from the BRET signal (acquired from cells expressing both the energy donor and acceptor).

T1 sequence (Q9H244 whole entry): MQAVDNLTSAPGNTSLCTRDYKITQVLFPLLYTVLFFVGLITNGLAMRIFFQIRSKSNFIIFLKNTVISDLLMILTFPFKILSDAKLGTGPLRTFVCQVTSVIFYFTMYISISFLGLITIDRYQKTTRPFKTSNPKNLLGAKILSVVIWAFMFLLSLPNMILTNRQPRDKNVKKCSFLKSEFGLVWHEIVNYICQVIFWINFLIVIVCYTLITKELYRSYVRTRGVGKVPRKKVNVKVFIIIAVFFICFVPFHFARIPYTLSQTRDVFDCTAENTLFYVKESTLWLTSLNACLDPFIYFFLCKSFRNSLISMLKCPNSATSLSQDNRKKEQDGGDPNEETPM

SMILES | IP1 concentration [1] | Effect on network homeostasis, spatial learning and memory [2] | IP1 concentration [3] | ADP-modulated BRET [4]
CNc1ncnc2c1ncn2[C@H]1C[C@H](OP(=O)(O)O)[C@@H](COP(=O)(O)O)O1 [MRS2179] | 90.2229 nM and 91.7585 nM and 129.706 nM and 87.0301 nM and 114.326 nM | restored network homeostasis and protected from the decline of spatial learning and memory | 88.9223 nM and 110.299 nM and 105.967 nM and 93.0408 nM and 138.708 nM | –
Nc1ncnc2c1ncn2[C@@H]1O[C@H](COP(=O)(O)OP(=O)(O)O)[C@@H](O)[C@H]1O [ADP, adenosine diphosphate] | – | – | – | -0.02779 and 0.00353 and 0.02201 and 0.01275 and 0.006152 and -0.007154
